Source: patent US20130142831A1, “COMPOUNDS FOR INFLAMMATION AND IMMUNE-RELATED USES” (Synta Pharmaceuticals Corp., priority 2004, published 2013)

Tested on: IL-2 production
Test: Inhibition of IL-2 production in PHA-activated Jurkat cells
Type: cell-based
Details: Homo sapiens, PHA 2.5 μg/mL, 20 hours
Protocol: Jurkat cells were placed in a 96 well plate (0.5 million cells per well in 1% FBS medium) then test compounds of this invention were added at different concentrations. After 10 minutes, the cells were activated with PHA (final concentration 2.5 μg/mL) and incubated for 20 hours at 37° C. under CO2. The final volume was 200 μL. Following incubation, the cells were centrifuged and the supernatants collected and stored at −70° C. prior to assaying for IL-2 production. A commercial kit (IL-2 Eli-pair, Diaclone Research, Besancon, France) was used to detect production of IL-2, from which dose response curves were obtained. The IC50 value was calculated as the concentration at which. 50% of maximum IL-2 production after stimulation was inhibited versus a non-stimulation control.

Question: `O=C(Nc1ccc(-n2c(C(F)(F)F)nc3ccccc32)cc1)Nc1cc(F)ccc1F` [Compound 50, N′-[4-(2-trifluoromethy-benzoimidazol-1-yl)-phenyl]-N-(2,5-difluoropheyl)-urea] was tested. Which IC50 (bins given with μM limit) did it give?
Answer: The IC50 was > 1 µM.

Question: `COc1ccc2c(c1)nc(C(F)(F)F)n2-c1ccc(NC(=O)c2ccccc2Br)cc1` [Compound 104, 2-Bromo-N-[4-(2-trifluoromethyl-5-methoxy-benzoimidazol-1-yl)-phenyl]-benzamide] was tested. Which IC50 (bins given in nM) did it give?
Answer: The IC50 was < 0.1 µM.

Question: Which IC50 (bins given in nM) does the source give for `COc1ccc2c(c1)nc(C(F)(F)F)n2-c1ccc(NC(=O)c2ccc(C)cc2)cc1` [Compound 76, 4-Methyl-N-[4-(2-trifluoromethyl-5-methoxy-benzoimidazol-1-yl)-phenyl]-benzamide] here?
Answer: Its IC50 is 0.1 to 0.5 µM.

Question: `O=C(Nc1ccc(-n2c(C(F)(F)F)nc3cc(C(F)(F)F)ccc32)cc1)c1cccc(F)c1F` [Compound 64, 2,3-Difluoro-N-{4-[2,5-di-(trifluoromethyl)-benzoimidazol-1-yl]-phenyl}-benzamide] was tested. Which IC50 (bins given in nM) did it give?
Answer: The IC50 was 0.1 to 0.5 µM.

Question: With `O=C(Nc1ccc(-n2cnc3ccccc32)cc1)c1cccc(F)c1F` [Compound 54, 2,3-Difluoro-N-[4-(benzoimidazol-1-yl)-phenyl]-benzamide] as the compound, how does the IC50 (bins given with μM limit) read?
Answer: The IC50 was > 1 µM.

Question: Which IC50 (bins given in nM) does the source give for `Fc1cccc(C(=S)Nc2ccc(-n3c(C(F)(F)F)nc4ccccc43)cc2)c1F` [Compound 12, 2,3-Difluoro-N-[4-(2-trifluoromethyl-benzoimidazol-1-yl)-phenyl]-thiobenzamide] here?
Answer: The IC50 was < 0.1 µM.

Question: Which IC50 (bins given in nM) does the source give for `COc1ccc2c(c1)nc(C(F)(F)F)n2-c1ccc(NC(=O)c2cccc(Cl)c2)cc1` [Compound 109, 3-Chloro-N-[4-(2-trifluoromethyl-5-methoxy-benzoimidazol-1-yl)-phenyl]-benzamide] here?
Answer: The IC50 was < 0.1 µM.

Question: Which IC50 (bins given in nM) does the source give for `COc1ccc2c(c1)nc(C(F)(F)F)n2-c1ccc(NC(=O)C2CCCC2)cc1` [Compound 105, N-[4-(2-trifluoromethyl-5-methoxy-benzoimidazol-1-yl)-phenyl]-cyclopentanecarboxylic acid amide] here?
Answer: The IC50 was < 0.1 µM.

Question: `COc1ccc2c(c1)nc(C(F)(F)F)n2-c1ccc(NC(=O)c2ccccc2[N+](=O)[O-])cc1` [Compound 107, 2-Nitro-N-[4-(2-trifluoromethyl-5-methoxy-benzoimidazol-1-yl)-phenyl]-benzamide] was tested. Which IC50 (bins given in nM) did it give?
Answer: Its IC50 is < 0.1 µM.

Question: With `N#Cc1cc(NC(=O)c2cccc(F)c2F)ccc1-n1c(C(F)(F)F)nc2ccccc21` [Compound 37, 2,3-Difluoro-N-[3-cyano-4-(2-trifluoromethyl-benzoimidiazol-1-yl)-phenyl]-benzamide] as the compound, how does the IC50 (bins given in nM) read?
Answer: The IC50 was 0.1 to 0.5 µM.

Question: How did the IC50 (bins given in nM) turn out when `CC(C)(C)OC(=O)Nc1ccc(C(=O)Nc2ccc(-n3c(C(F)(F)F)nc4ccccc43)cc2)c(F)c1F` [Compound 31, N-(4-{N-[4-(2-trifluoromethyl-benzoimidazol-1-yl)-phenyl]-carbamoyl}-2,3-difluoro-phenyl)-carbamic acid t-butyl ester] was run?
Answer: The IC50 was 0.1 to 0.5 µM.

Question: How did the IC50 (bins given in nM) turn out when `N#Cc1ccc2nc(C(F)(F)F)n(-c3ccc(NC(=O)c4cccc(F)c4F)cc3)c2c1` [Compound 20, 2,3-Difluoro-N-[4-(2-trifluoromethyl-6-cyano-benzoimidazol-1-yl)-phenyl]-benzamide] was run?
Answer: Its IC50 is 0.1 to 0.5 µM.

Question: How did the IC50 (bins given with μM limit) turn out when `CC(C)c1nc2ccccc2n1-c1ccc(NC(=O)c2cccc(F)c2F)cc1` [Compound 49, 2,3-Difluoro-N-[4-(2-isopropyl-benzoimidazol-1-yl)-phenyl]-benzamide] was run?
Answer: The IC50 was > 1 µM.

Question: How did the IC50 (bins given in nM) turn out when `COc1ccc2c(c1)nc(C(F)(F)F)n2-c1ccc(NC(=O)c2ccncc2C)cc1` [Compound 5, 3-Methyl-N-[4-(2-trifluoromethyl-5-methoxy-benzoimidazol-1-yl)-phenyl]-isonicotinamide] was run?
Answer: The IC50 was < 0.1 µM.

Question: How did the IC50 (bins given in nM) turn out when `COc1ccc2c(c1)nc(C(F)(F)F)n2-c1ccc(NC(=O)c2ccncc2F)cc1` [Compound 6, 3-Fluoro-N-[4-(2-trifluoromethyl-5-methoxy-benzoimidazol-1-yl)-phenyl]-isonicotinamide] was run?
Answer: Its IC50 is < 0.1 µM.

Question: For `COc1ccc2c(c1)nc(C(F)(F)F)n2-c1ccc(NC(=O)c2ccccc2OC)cc1` [Compound 128, 2-Methoxy-N-[4-(2-trifluoromethyl-5-methoxy-benzoimidazol-1-yl)-phenyl]-benzamide], which IC50 (bins given with μM limit) is on record?
Answer: The IC50 was > 1 µM.

Question: How did the IC50 (bins given in nM) turn out when `O=C(Nc1ccc(-n2c(Br)nc3ccccc32)cc1)c1cccc(F)c1F` [Compound 28, 2,3-Difluoro-N-[4-(2-bromo-benzoimidazol-1-yl)-phenyl]-benzamide] was run?
Answer: Its IC50 is 0.1 to 0.5 µM.

Question: For `O=C(Nc1ccc(-c2c(C(F)(F)F)cc3n2CCCC3)cc1)c1cccc(F)c1F` [Compound 8, 2,3-Difluoro-N-[4-(2-trifluoromethyl-5,6,7,8-tetrahydroindolizin-3-yl)-phenyl]-benzamide], which IC50 (bins given in nM) is on record?
Answer: The IC50 was < 0.1 µM.

Question: `O=C(Nc1ccc(-n2c(C(F)(F)F)nc3cc(O)ccc32)cc1)c1cccc(F)c1F` [Compound 99, 2,3-Difluoro-N-[4-(2-trifluoromethyl-5-hydroxy-benzoimidazol-1-yl)-phenyl]-benzamide] was tested. Which IC50 (bins given in nM) did it give?
Answer: The IC50 was < 0.1 µM.

Question: How did the IC50 (bins given in nM) turn out when `COc1cccc(C(=O)Nc2ccc(-n3c(C(F)(F)F)nc4cc(OC)ccc43)cc2)c1` [Compound 89, 3-Methoxy-N-[4-(2-trifluoromethyl-5-methoxy-benzoimidazol-1-yl)-phenyl]-benzamide] was run?
Answer: The IC50 was 0.1 to 0.5 µM.

Question: `Nc1cccc2c1nc(C(F)(F)F)n2-c1ccc(NC(=O)c2cccc(F)c2F)cc1` [Compound 21, 2,3-Difluoro-N-[4-(2-trifluoromethyl-4-amino-benzoimidazol-1-yl)-phenyl]-benzamide] was tested. Which IC50 (bins given in nM) did it give?
Answer: The IC50 was 0.1 to 0.5 µM.

Question: For `Nc1cc(F)c(F)c(C(=O)Nc2ccc(-n3c(C(F)(F)F)nc4ccccc43)cc2)c1F` [Compound 16, 2,3,6-Trifluoro-5-amino-N-[4-(2-trifluoromethyl-benzoimidazol-1-yl)-phenyl]-benzamide], which IC50 (bins given in nM) is on record?
Answer: The IC50 was 0.1 to 0.5 µM.

Question: How did the IC50 (bins given in nM) turn out when `Cc1nnsc1C(=O)Nc1ccc(-n2c(C(F)(F)F)nc3ccccc32)cc1` [Compound 29, 4-Methyl-[1,2,3]thiadiazole-5-carboxylic acid {N-[4-(2-trifluoromethyl-benzoimidazol-1-yl)-phenyl]} amide] was run?
Answer: Its IC50 is 0.1 to 0.5 µM.

Question: How did the IC50 (bins given in nM) turn out when `COc1ccc2c(c1)nc(C(F)(F)F)n2-c1ccc(NC(=O)C=C(C)C)cc1` [Compound 84, 3-Methyl-N-[4-(2-trifluoromethyl-5-methoxy-benzoimidazol-1-yl)-phenyl]-but-2-enoic acid amide] was run?
Answer: Its IC50 is 0.1 to 0.5 µM.

Question: Which IC50 (bins given in nM) does the source give for `COc1ccc2c(c1)nc(C(F)(F)F)n2-c1ccc(NC(=O)c2ccccc2)cc1` [Compound 111, N-[4-(2-trifluoromethyl-5-methoxy-benzoimidazol-1-yl)-phenyl]-benzamide] here?
Answer: The IC50 was < 0.1 µM.

Question: How did the IC50 (bins given in nM) turn out when `COc1ccc2c(c1)nc(C(F)(F)F)n2-c1ccc(NC(=O)c2cccc([N+](=O)[O-])c2)cc1` [Compound 10, 3-Nitro-N-[4-(2-trifluoromethyl-5-methoxy-benzoimidazol-1-yl)-phenyl]-benzamide] was run?
Answer: Its IC50 is < 0.1 µM.

Question: With `Cc1nnsc1C(=O)Nc1ccc(-n2c(C(F)(F)F)nc3cccnc32)cc1` [Compound 58, 4-Methyl-[1,2,3]thiadiazole-5-carboxylic acid {N-[4-(2-trifluoromethyl-imidazo[4,5-b]pyrid-3-yl)-phenyl]} amide] as the compound, how does the IC50 (bins given with μM limit) read?
Answer: Its IC50 is > 1 µM.

Question: How did the IC50 (bins given in nM) turn out when `CC(=O)Oc1ccc2c(c1)nc(C(F)(F)F)n2-c1ccc(NC(=O)c2cccc(F)c2F)cc1` [Compound 132, 2,3-Difluoro-N-[4-(2-trifluoromethyl-5-acetoxy-benzoimidazol-1-yl)-phenyl]-benzamide] was run?
Answer: Its IC50 is < 0.1 µM.
